Where a name gives a salt, the structure may show the parent alone.
How the values were obtained:
[1] = Stability testing of spray dried vancomycin batch stored at 25° C./60% RH, 30° C./60% RH and 40° C./75% RH; format: physicochemical; conditions: Initial
Procedure: (§1) Batches for stability testing were made using the spray dried formulation vancomycin HCl (15% by weight), PEG-400 (3% by weight), mannitol (3% by weight) in WFI, with the API sourced from Abbott Laboratories (North Chicago, Ill.). Spray dried batches were stored at 25° C./60% Relative Humidity (RH), 30° C./60% RH, and 40° C./75% RH for three months. The stability data on moisture by Karl Fischer, pH (of the reconstituted solution), reconstitution time and chromatographic purity are presented in Table 7. The chromatographic purity was examined using the analytical HPLC method described in the current USP (United States Pharmacopeia) monograph for vancomycin. The test results for the API lot used to make the spray dried product were also listed for comparison.
The chromatographic purity of vancomycin B for all samples tested in this study were within USP specifications. All samples were stored at the accelerated conditions of 40° C./75% RH for 3 months and met USP criterion for vancomycin B by chromatographic purity (NLT 80% vancomycin B).

[2] = Chromatographic purity / impurities of spray dried vancomycin powders (Vancomycin B); format: physicochemical
Procedure: as §1
Three vancomycin formulations were prepared in WFI or citrate buffer. The solutions were spray dried as described above. Resultant powders were tested along with the vancomycin HCl API for impurities, reconstitution time and moisture as shown in Table 8.

For `CN[C@H](CC(C)C)C(=O)N[C@H]1C(=O)N[C@@H](CC(N)=O)C(=O)N[C@H]2C(=O)N[C@H]3C(=O)N[C@H](C(=O)N[C@H](C(=O)O)c4cc(O)cc(O)c4-c4cc3ccc4O)[C@H](O)c3ccc(c(Cl)c3)Oc3cc2cc(c3O[C@@H]2O[C@H](CO)[C@@H](O)[C@H](O)[C@H]2O[C@H]2C[C@](C)(N)[C@H](O)[C@H](C)O2)Oc2ccc(cc2Cl)[C@H]1O` [API Lot 09097619, vancomycin HCl], the “Vancomycin B” value [1] was 91.9%.

For `CN[C@H](CC(C)C)C(=O)N[C@H]1C(=O)N[C@@H](CC(N)=O)C(=O)N[C@H]2C(=O)N[C@H]3C(=O)N[C@H](C(=O)N[C@H](C(=O)O)c4cc(O)cc(O)c4-c4cc3ccc4O)[C@H](O)c3ccc(c(Cl)c3)Oc3cc2cc(c3O[C@@H]2O[C@H](CO)[C@@H](O)[C@H](O)[C@H]2O[C@H]2C[C@](C)(N)[C@H](O)[C@H](C)O2)Oc2ccc(cc2Cl)[C@H]1O` [API, vancomycin HCl], the N-Demethylvancomycin ([2]; Table 8) was 0.6%, the “Vancomycin B” value ([2]; Table 8) was 94.9% and the Other ([2]; Table 8, other impurities) was 4.5%.
